Legend:
[1] = target: T1, Serine/threonine-protein kinase 36 (Homo sapiens) (UniProt Q9NRP7); assay: Selectivity interaction (KinomeScan (DiscoverX)) EUB0001079a STK36; conditions: at 1 µM
T1 sequence (whole entry): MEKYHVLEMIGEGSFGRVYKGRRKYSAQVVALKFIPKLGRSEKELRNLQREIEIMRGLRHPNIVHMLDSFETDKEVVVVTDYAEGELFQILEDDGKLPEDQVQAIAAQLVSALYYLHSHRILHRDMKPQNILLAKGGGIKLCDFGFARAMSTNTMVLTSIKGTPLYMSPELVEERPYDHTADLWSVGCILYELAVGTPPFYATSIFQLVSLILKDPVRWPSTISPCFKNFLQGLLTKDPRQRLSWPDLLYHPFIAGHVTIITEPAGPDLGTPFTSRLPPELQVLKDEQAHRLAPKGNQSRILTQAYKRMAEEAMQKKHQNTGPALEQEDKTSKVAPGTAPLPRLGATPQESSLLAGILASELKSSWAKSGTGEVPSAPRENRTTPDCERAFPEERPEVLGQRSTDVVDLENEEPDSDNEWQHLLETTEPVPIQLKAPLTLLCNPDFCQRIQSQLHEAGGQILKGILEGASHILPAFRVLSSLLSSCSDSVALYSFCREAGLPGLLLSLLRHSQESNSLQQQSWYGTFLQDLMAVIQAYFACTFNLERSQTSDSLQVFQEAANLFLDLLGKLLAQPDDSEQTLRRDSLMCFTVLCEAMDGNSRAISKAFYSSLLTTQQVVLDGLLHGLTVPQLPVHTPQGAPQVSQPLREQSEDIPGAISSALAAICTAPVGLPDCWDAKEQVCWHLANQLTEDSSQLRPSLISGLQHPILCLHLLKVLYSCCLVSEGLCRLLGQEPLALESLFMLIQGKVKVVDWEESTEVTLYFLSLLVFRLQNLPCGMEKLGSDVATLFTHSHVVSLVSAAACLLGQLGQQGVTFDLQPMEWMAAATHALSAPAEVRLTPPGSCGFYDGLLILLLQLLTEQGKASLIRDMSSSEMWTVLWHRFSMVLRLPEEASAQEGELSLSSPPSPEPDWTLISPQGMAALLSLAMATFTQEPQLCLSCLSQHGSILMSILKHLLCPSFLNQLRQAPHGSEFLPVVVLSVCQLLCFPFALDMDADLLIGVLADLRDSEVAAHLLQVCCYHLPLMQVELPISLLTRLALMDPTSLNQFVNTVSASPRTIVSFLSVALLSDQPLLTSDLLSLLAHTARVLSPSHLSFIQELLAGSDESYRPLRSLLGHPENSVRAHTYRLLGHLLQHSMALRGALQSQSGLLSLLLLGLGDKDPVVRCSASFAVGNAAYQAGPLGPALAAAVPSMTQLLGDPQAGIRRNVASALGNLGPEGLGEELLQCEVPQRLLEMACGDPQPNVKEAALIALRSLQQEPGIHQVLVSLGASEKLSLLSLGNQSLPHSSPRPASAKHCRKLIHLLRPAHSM

[2] = target: Cyclin-dependent kinase 16 (Homo sapiens) (UniProt Q00536); assay: Selectivity interaction (KinomeScan (DiscoverX)) EUB0001049a CDK16; conditions: at 1 µM
[3] = target: SRSF protein kinase 3 (Homo sapiens) (UniProt Q9UPE1); assay: Selectivity interaction (Upstate Kinase Profiler service (Millipore)) EUB0000056c SRPK3; conditions: at 1 µM
[4] = target: AP2-associated protein kinase 1 (Homo sapiens, UniProt Q2M2I8); assay: Selectivity interaction (Kinase panel (DSF assay)) EUB0001489b AAK1
[5] = target: T2, Discoidin domain-containing receptor 2 (Homo sapiens) (UniProt Q16832); assay: Selectivity interaction (KinomeScan (DiscoverX)) EUB0000655a DDR2; conditions: at 10 µM
T2 sequence (whole entry): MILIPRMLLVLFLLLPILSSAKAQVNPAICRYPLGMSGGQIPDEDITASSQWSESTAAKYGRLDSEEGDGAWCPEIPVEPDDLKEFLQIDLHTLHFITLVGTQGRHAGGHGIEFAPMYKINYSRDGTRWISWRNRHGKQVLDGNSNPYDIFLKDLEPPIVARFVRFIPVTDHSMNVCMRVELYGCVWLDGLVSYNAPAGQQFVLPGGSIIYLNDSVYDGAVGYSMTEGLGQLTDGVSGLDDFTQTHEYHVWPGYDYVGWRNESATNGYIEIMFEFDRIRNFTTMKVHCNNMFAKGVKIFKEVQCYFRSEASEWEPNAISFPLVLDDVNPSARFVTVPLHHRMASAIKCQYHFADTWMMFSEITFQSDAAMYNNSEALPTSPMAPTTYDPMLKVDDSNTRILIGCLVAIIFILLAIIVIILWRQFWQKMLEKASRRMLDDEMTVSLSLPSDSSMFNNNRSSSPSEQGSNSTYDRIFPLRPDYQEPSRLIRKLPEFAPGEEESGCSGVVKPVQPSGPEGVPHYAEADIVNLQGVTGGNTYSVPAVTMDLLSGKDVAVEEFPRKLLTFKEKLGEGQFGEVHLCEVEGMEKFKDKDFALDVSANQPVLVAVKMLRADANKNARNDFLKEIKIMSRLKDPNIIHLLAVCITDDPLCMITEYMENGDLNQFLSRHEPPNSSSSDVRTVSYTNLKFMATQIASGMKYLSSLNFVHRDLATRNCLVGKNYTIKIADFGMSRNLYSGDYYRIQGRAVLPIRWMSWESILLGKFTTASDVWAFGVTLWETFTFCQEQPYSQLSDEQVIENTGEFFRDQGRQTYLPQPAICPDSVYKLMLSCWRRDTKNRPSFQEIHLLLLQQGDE

[6] = target: T3, Tyrosine-protein kinase ZAP-70 (Homo sapiens) (UniProt P43403); assay: Selectivity interaction (KinomeScan (DiscoverX)) EUB0000092b ZAP70; conditions: at 10 µM
T3 sequence (whole entry): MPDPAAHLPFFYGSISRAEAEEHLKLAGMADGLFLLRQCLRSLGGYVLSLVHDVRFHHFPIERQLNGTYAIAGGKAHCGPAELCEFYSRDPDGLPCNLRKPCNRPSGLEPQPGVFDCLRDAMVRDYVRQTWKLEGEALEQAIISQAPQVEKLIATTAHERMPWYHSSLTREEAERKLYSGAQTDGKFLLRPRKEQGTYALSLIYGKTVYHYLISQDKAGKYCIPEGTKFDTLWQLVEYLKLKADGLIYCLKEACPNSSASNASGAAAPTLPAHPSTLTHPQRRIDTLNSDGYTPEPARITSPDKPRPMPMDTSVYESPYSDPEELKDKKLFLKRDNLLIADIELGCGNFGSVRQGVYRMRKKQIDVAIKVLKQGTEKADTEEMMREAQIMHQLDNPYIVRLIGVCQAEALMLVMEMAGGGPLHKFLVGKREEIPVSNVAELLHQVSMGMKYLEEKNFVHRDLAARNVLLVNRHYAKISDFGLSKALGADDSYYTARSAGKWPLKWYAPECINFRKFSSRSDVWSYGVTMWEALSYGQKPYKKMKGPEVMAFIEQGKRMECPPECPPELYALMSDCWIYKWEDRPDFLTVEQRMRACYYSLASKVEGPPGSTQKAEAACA

Sequence of AP2-associated protein kinase 1 (Q2M2I8 whole entry, looked up, the tested form may be a part): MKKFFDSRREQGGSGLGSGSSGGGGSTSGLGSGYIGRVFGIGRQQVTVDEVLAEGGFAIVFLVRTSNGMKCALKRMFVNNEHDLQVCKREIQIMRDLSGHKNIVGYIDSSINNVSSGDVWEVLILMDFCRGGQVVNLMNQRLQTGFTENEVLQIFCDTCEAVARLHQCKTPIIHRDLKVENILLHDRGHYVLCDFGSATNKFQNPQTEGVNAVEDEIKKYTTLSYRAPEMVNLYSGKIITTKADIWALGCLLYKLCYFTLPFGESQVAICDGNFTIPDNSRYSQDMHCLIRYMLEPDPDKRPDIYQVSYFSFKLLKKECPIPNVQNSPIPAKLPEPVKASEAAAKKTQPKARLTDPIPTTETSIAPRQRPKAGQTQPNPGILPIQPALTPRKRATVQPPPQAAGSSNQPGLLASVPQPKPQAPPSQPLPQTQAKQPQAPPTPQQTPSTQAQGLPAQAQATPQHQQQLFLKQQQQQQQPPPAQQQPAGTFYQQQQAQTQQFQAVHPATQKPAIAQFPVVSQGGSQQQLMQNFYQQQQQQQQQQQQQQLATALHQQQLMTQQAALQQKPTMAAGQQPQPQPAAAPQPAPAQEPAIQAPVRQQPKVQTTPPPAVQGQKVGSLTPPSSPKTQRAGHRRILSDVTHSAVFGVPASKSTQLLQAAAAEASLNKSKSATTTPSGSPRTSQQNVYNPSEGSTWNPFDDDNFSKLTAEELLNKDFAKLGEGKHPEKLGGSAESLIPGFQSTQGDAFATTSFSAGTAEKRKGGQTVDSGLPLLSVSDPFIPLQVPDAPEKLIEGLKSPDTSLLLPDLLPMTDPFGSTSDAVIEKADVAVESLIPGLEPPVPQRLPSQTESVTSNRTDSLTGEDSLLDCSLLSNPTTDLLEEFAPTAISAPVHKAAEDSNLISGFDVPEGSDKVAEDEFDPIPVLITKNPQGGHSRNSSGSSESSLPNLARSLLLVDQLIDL
Sequence of SRSF protein kinase 3 (Homo sapiens) (Q9UPE1 whole entry): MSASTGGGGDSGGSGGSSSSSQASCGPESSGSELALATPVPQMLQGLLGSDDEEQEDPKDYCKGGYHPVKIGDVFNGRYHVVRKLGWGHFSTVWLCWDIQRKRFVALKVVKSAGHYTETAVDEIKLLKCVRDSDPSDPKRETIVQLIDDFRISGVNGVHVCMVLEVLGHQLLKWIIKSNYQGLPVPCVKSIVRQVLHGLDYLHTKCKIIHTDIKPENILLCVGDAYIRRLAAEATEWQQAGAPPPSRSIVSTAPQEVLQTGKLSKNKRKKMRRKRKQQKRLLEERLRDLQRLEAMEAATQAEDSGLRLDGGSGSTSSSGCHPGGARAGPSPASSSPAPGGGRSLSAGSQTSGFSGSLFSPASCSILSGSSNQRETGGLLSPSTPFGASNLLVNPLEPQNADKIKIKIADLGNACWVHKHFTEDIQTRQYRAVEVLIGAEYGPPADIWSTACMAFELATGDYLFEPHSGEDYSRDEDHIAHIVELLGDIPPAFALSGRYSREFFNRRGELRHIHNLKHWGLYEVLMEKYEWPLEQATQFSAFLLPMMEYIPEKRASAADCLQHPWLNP
Sequence of Cyclin-dependent kinase 16 (Homo sapiens) (Q00536 whole entry): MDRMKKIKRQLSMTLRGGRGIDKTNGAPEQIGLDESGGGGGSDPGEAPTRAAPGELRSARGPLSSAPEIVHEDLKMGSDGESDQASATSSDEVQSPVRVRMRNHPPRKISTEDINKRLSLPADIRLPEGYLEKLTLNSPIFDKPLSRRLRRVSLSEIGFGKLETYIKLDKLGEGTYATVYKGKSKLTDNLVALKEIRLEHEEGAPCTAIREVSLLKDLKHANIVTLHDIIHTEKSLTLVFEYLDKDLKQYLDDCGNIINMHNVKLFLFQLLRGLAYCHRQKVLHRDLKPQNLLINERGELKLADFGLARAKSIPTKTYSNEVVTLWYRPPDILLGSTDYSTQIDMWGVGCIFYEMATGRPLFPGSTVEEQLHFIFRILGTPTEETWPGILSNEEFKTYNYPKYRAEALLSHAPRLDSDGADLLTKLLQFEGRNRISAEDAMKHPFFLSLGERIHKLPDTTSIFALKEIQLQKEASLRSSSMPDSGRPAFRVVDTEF

Molecule `Nc1cnc(N2CCc3cc(S(=O)(=O)Nc4c(F)cc(Cl)cc4F)cc(N4CCCC4=O)c32)nc1` [TP-020n] has a % of control [1] of 98%.

`COc1cc(Nc2nc(C)cc(-c3cnn4nc(OC)ccc34)n2)cc(C(F)(F)F)c1` gave a % of control [2] of 74%.

With `Cc1ccc(-c2ccc3c(ccc4sc5c(c43)NC[C@@H](C)NC5=O)n2)cn1` the % of inhibition [3] was 36%.

With `CN1CCN(C(=O)c2ccc3cc2OCCOCCNc2ccn4ncc-3c4n2)CC1` the dTM [4] was 4.2 K.

For `CN(C)CCOc1ccc(-c2nc(-c3ccncc3)c(-c3ccc4c(c3)CC/C4=N\O)[nH]2)cc1`, the % of control [5] was 67%.

Work on `CCC(=O)N1CCN(c2ccc(-n3c(=O)ccc4cnc5ccc(-c6cnc7ccccc7c6)cc5c43)cc2C(F)(F)F)CC1` yielded a % of control [6] of 100%.
